# Molecular target: FLT3 (human) (UniProt P36888)
# Assay: radiometric filter-binding kinase assay, Kinase HotSpot
# Conditions: compound 0.5 µM; ATP 10 µM
row,SMILES,residual activity
1,Cc1cc(Nc2nc(-c3ccccc3)nc3ccccc23)n[nH]1,10.5%
2,N#Cc1c(NC(=O)c2cccc3ccccc23)sc2c1CCCC2,111%

# Molecular target: MAPKAPK2 (human) (UniProt P49137)
# Assay: as above
# Conditions: compound 0.5 µM; ATP 10 µM
# Sequence of MAPKAPK2 (human) (P49137 whole entry, looked up): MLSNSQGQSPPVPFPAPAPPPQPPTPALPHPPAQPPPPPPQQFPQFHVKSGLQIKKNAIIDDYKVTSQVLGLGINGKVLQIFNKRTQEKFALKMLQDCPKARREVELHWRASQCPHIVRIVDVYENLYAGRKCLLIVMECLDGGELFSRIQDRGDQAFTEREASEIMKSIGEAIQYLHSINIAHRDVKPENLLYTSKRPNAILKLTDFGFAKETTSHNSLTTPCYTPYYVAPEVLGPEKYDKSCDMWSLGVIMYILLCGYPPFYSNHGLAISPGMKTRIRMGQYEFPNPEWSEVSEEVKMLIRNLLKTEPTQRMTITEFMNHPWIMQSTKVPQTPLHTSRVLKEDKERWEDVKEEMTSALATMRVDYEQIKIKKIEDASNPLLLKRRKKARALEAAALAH
row,SMILES,residual activity
1,CCc1nc(-c2ccc(OC)cc2)[nH]c1-c1ccncc1,100%
2,O=C(O)c1ccc2c3c1cccc3c(=O)n1c3ccccc3nc21,102%
3,Cc1cc(Nc2nc(-c3ccccc3)nc3ccccc23)n[nH]1,100%
4,N#Cc1c(NC(=O)c2cccc3ccccc23)sc2c1CCCC2,103%

# Molecular target: PKN1 (human) (UniProt Q16512)
# Assay: as above
# Conditions: compound 0.5 µM; ATP 10 µM
row,SMILES,residual activity
1,CCc1nc(-c2ccc(OC)cc2)[nH]c1-c1ccncc1,97%
2,O=C(O)c1ccc2c3c1cccc3c(=O)n1c3ccccc3nc21,99.5%
3,Cc1cc(Nc2nc(-c3ccccc3)nc3ccccc23)n[nH]1,89.9%
4,N#Cc1c(NC(=O)c2cccc3ccccc23)sc2c1CCCC2,108%

# Molecular target: PDGFRB (human) (UniProt P09619)
# Assay: as above
# Conditions: compound 0.5 µM; ATP 10 µM
row,SMILES,residual activity
1,CCc1nc(-c2ccc(OC)cc2)[nH]c1-c1ccncc1,105%
2,O=C(O)c1ccc2c3c1cccc3c(=O)n1c3ccccc3nc21,107%
3,Cc1cc(Nc2nc(-c3ccccc3)nc3ccccc23)n[nH]1,55.4%
4,N#Cc1c(NC(=O)c2cccc3ccccc23)sc2c1CCCC2,98.9%

# Molecular target: MAP4K4 (human) (UniProt O95819)
# Assay: as above
# Conditions: compound 0.5 µM; ATP 10 µM
# Sequence of MAP4K4 (human) (O95819 whole entry, looked up): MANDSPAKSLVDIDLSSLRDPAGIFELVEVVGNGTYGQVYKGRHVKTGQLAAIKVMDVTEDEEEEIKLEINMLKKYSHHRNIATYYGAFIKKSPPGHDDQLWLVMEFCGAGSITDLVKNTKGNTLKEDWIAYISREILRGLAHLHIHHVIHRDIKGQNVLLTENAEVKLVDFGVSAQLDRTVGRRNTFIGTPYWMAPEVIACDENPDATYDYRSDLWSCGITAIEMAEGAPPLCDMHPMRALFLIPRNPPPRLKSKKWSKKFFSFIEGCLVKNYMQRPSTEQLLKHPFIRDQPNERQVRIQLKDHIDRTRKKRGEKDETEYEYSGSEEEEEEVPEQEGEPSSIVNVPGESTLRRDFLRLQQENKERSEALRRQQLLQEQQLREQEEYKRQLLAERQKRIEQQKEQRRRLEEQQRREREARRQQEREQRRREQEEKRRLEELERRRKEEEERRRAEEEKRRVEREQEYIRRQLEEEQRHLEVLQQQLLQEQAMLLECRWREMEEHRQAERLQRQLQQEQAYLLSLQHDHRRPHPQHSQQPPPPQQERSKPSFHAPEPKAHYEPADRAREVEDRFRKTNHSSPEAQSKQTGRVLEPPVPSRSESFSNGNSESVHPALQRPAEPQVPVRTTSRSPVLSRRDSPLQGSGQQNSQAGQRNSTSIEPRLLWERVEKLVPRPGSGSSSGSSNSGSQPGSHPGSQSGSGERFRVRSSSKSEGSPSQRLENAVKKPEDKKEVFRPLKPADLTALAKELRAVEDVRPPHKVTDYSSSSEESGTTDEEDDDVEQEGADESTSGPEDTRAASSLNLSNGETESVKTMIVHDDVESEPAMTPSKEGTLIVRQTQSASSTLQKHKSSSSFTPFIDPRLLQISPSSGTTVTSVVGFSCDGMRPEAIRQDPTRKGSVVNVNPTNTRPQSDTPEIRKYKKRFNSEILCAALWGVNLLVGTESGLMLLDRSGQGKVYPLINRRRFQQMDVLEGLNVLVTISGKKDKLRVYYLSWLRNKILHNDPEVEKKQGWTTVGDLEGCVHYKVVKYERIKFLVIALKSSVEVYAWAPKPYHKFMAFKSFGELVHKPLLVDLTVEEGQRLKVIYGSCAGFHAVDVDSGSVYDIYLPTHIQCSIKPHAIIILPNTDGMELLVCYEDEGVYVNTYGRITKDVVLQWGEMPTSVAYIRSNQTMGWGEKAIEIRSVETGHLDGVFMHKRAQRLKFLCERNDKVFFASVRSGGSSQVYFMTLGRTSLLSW
row,SMILES,residual activity
1,CCc1nc(-c2ccc(OC)cc2)[nH]c1-c1ccncc1,91.9%
2,O=C(O)c1ccc2c3c1cccc3c(=O)n1c3ccccc3nc21,43.4%
3,Cc1cc(Nc2nc(-c3ccccc3)nc3ccccc23)n[nH]1,25.7%
4,N#Cc1c(NC(=O)c2cccc3ccccc23)sc2c1CCCC2,88.9%

# Molecular target: PKN2 (human) (UniProt Q16513)
# Assay: as above
# Conditions: compound 0.5 µM; ATP 10 µM
# Sequence of PKN2 (human) (Q16513 whole entry, looked up): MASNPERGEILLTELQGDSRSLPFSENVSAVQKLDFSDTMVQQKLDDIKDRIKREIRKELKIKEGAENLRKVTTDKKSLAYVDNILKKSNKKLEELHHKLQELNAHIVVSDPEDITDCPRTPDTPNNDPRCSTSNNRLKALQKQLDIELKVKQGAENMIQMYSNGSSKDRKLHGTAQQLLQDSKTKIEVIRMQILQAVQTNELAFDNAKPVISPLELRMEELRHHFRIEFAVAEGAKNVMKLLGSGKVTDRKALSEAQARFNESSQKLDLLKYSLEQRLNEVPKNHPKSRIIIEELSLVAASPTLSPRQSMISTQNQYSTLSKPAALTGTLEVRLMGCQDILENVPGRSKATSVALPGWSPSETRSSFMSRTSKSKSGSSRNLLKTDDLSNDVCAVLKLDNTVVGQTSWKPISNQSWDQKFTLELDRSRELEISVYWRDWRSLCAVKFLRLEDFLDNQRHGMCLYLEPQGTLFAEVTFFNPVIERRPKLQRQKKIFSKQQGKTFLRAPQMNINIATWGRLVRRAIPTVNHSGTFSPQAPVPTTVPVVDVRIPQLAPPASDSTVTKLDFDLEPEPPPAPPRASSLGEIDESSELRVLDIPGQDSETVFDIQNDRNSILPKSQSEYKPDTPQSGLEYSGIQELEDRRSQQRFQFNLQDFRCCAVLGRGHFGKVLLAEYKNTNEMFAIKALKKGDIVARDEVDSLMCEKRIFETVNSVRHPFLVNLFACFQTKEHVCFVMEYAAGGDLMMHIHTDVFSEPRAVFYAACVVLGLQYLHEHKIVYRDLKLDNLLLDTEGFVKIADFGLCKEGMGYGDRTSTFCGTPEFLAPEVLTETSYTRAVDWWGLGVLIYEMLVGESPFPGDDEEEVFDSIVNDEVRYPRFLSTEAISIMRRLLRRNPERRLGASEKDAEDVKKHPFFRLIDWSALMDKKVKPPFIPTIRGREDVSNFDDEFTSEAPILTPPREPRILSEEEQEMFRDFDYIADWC
row,SMILES,residual activity
1,CCc1nc(-c2ccc(OC)cc2)[nH]c1-c1ccncc1,95.7%
2,O=C(O)c1ccc2c3c1cccc3c(=O)n1c3ccccc3nc21,97.9%
3,Cc1cc(Nc2nc(-c3ccccc3)nc3ccccc23)n[nH]1,87.2%
4,N#Cc1c(NC(=O)c2cccc3ccccc23)sc2c1CCCC2,103%

# Molecular target: IRAK4 (human) (UniProt Q9NWZ3)
# Assay: as above
# Conditions: compound 0.5 µM; ATP 10 µM
# Sequence of IRAK4 (human) (Q9NWZ3 whole entry, looked up): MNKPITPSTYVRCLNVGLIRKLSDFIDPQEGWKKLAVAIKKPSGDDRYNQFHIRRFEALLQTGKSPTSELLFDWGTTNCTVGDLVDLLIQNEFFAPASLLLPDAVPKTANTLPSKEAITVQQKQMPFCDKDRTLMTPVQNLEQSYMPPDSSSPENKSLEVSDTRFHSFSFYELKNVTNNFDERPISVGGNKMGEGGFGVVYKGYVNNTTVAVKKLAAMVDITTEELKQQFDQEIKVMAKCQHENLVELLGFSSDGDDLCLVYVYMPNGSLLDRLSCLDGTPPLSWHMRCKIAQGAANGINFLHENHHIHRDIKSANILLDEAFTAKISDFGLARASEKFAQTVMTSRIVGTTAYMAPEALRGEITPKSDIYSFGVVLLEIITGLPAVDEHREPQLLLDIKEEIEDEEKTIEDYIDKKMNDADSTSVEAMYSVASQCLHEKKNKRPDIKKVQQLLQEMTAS
row,SMILES,residual activity
1,CCc1nc(-c2ccc(OC)cc2)[nH]c1-c1ccncc1,111%
2,O=C(O)c1ccc2c3c1cccc3c(=O)n1c3ccccc3nc21,107%
3,Cc1cc(Nc2nc(-c3ccccc3)nc3ccccc23)n[nH]1,93.2%
4,N#Cc1c(NC(=O)c2cccc3ccccc23)sc2c1CCCC2,92.9%

# Molecular target: CLK2 (human) (UniProt P49760)
# Assay: as above
# Conditions: compound 0.5 µM; ATP 10 µM
# Sequence of CLK2 (human) (P49760 whole entry, looked up): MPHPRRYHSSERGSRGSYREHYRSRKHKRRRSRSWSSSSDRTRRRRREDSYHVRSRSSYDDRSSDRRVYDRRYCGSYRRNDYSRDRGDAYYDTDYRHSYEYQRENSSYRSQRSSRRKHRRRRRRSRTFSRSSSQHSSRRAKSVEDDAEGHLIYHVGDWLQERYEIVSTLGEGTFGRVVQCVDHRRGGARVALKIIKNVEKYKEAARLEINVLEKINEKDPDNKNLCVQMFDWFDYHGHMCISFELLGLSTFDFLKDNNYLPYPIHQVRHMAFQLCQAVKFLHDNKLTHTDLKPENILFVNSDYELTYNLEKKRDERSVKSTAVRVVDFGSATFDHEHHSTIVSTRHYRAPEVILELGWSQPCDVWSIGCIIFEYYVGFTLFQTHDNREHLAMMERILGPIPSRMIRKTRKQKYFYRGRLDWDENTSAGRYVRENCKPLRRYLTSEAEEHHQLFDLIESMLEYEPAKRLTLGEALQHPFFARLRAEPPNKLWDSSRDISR
row,SMILES,residual activity
1,CCc1nc(-c2ccc(OC)cc2)[nH]c1-c1ccncc1,106%
2,O=C(O)c1ccc2c3c1cccc3c(=O)n1c3ccccc3nc21,91%
3,Cc1cc(Nc2nc(-c3ccccc3)nc3ccccc23)n[nH]1,91.7%
4,N#Cc1c(NC(=O)c2cccc3ccccc23)sc2c1CCCC2,101%

# Molecular target: MATK (human) (UniProt P42679)
# Assay: as above
# Conditions: compound 0.5 µM; ATP 10 µM
# Sequence of MATK (human) (P42679 whole entry, looked up): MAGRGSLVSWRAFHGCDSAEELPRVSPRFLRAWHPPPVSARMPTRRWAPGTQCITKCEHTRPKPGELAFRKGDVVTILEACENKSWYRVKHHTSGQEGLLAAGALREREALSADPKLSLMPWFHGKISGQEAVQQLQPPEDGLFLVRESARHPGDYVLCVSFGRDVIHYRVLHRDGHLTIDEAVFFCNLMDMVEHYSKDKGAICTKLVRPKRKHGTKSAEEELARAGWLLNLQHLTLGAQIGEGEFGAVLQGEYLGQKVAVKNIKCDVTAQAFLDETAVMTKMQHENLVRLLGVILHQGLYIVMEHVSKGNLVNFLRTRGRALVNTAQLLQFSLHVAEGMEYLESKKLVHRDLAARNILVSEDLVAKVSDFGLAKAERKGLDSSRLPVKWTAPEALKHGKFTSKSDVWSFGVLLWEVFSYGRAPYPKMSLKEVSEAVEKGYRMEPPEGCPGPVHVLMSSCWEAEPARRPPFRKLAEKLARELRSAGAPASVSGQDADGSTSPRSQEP
row,SMILES,residual activity
1,CCc1nc(-c2ccc(OC)cc2)[nH]c1-c1ccncc1,94.1%
2,O=C(O)c1ccc2c3c1cccc3c(=O)n1c3ccccc3nc21,94%
3,Cc1cc(Nc2nc(-c3ccccc3)nc3ccccc23)n[nH]1,96.1%
4,N#Cc1c(NC(=O)c2cccc3ccccc23)sc2c1CCCC2,92.7%

# Molecular target: KIT (human) (UniProt P10721)
# Assay: as above
# Conditions: compound 0.5 µM; ATP 10 µM
# Sequence of KIT (human) (P10721 whole entry, looked up): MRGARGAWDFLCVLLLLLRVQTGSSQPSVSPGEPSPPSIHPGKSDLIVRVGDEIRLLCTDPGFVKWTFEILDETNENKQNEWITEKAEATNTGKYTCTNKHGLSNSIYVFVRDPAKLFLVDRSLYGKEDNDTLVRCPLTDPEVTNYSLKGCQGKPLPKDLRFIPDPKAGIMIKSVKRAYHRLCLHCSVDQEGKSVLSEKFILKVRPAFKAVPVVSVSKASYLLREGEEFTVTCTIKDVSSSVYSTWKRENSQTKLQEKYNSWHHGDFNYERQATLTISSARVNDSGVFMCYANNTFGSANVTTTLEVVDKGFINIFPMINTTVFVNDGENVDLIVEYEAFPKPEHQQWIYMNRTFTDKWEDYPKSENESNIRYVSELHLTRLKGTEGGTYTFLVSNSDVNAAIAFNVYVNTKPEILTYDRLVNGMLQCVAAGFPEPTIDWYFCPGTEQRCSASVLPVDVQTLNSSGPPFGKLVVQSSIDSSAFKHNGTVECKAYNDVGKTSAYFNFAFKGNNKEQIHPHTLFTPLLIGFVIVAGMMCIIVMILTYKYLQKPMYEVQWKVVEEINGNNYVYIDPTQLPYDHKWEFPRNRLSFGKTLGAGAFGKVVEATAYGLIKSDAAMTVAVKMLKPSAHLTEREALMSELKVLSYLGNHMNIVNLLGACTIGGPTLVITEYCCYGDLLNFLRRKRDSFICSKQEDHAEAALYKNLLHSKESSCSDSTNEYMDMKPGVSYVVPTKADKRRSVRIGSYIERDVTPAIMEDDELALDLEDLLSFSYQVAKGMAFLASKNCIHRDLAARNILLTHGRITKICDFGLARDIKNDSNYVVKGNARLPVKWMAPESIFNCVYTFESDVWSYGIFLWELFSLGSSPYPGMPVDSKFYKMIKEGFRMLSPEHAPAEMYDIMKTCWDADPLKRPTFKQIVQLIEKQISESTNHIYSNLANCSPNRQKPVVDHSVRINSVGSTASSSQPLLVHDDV
row,SMILES,residual activity
1,CCc1nc(-c2ccc(OC)cc2)[nH]c1-c1ccncc1,92.7%
2,O=C(O)c1ccc2c3c1cccc3c(=O)n1c3ccccc3nc21,93.5%
3,Cc1cc(Nc2nc(-c3ccccc3)nc3ccccc23)n[nH]1,40.8%
4,N#Cc1c(NC(=O)c2cccc3ccccc23)sc2c1CCCC2,84.2%

# Molecular target: YES1 (human) (UniProt P07947)
# Assay: as above
# Conditions: compound 0.5 µM; ATP 10 µM
row,SMILES,residual activity
1,CCc1nc(-c2ccc(OC)cc2)[nH]c1-c1ccncc1,95.1%
2,O=C(O)c1ccc2c3c1cccc3c(=O)n1c3ccccc3nc21,96.6%
3,Cc1cc(Nc2nc(-c3ccccc3)nc3ccccc23)n[nH]1,20.4%
4,N#Cc1c(NC(=O)c2cccc3ccccc23)sc2c1CCCC2,104%
